In patent publication US20260092054A1, “FUSED RING COMPOUND AND PHARMACEUTICAL CONTAINING SAME” (KAKEN PHARMACEUTICAL CO., LTD., priority 2022, published 2026):

Columns and labels:
human STAT6/pIL-4Rα = target: T1, human STAT6/pIL-4Rα (Homo sapiens, UniProt P42226); assay: Binding inhibitory activity between human STAT6/pIL-4Rα by fluorescence polarization method; conditions: rhSTAT6 (123-658) / FAM-pIL-4Rα peptide
T1 construct: histidine tag
T1 sequence (P42226 123-658): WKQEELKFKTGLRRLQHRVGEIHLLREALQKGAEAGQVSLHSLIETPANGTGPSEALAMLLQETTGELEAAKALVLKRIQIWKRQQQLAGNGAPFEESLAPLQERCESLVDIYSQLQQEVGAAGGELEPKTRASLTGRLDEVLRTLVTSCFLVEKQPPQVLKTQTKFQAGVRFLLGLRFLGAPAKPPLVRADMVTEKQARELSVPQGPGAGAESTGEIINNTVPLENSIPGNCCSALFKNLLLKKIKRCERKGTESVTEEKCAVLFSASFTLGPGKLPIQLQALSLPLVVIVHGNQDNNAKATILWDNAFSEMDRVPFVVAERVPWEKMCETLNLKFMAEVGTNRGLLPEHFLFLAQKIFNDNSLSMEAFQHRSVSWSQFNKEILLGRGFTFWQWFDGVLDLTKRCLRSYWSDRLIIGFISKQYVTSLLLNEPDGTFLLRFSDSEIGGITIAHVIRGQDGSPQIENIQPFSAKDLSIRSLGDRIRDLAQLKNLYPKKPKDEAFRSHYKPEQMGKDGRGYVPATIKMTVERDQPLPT
Outline: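 His-tagged human STAT6 (residues 123–658, E. coli-expressed) was preincubated with compound for 30 min at RT in the dark, in buffer e.g. 50 mM NaCl, 10 mM HEPES pH 7.0, 1 mM DTT, 1 mM EDTA, 0.01% NP-40. FAM-pIL-4Rα peptide was then added for 30 min. Fluorescence polarisation was read at 485/535 nm, with IC50 interpolated linearly between two points flanking 50%.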

human STAT6 = assay: Human STAT6 dependent reporter activity (IL-4 stimulated STAT6 reporter assay using STAT6-HEK293 cells); type: cell-based; conditions: IL-4 stimulation, luciferase activity; for inhibition at 0.1 µM / inhibition at 1 µM: Homo sapiens, read-out: Inhibition rate (%)

Structure (SMILES)	IC50 (human STAT6/pIL-4Rα)	inhibition at 0.1 µM (human STAT6; compound 0.1 μmol/L)	inhibition at 1 µM (human STAT6; compound 1 μmol/L)	Inhibition rate (%) (human STAT6; compound 0.1 μmol/L)	Inhibition rate (%) (human STAT6; compound 1 μmol/L)
Cc1nn(C)c(=O)n1-c1ccc(-c2cc3ccnc(C(=O)Nc4ccc(F)c(C(N)=O)c4)c3n2CC2CCC2)cc1 [Ex. 121]	420 nM	40%	97%	–	–
Cc1nn(C)c(=O)n1-c1ccc(-c2cc3ccnc(C(=O)Nc4cccc(C(N)=O)c4F)c3n2CC2CCC2)cc1 [Ex. 122]	690 nM	23%	89%	–	–
Cc1nn(C)c(=O)n1-c1ccc(-c2cc3ccnc(C(=O)Nc4cccc(C(N)=O)c4F)c3n2CC2(C#N)CC2)cc1 [Ex. 123]	500 nM	40%	96%	–	–
Cc1nn(C)c(=O)n1-c1ccc(-c2cc3cc(C(F)(F)F)cc(C(=O)Nc4ccc(F)c(C(N)=O)c4)c3n2CC2(C#N)CC2)cc1 [Ex. 124]	450 nM	57%	99%	–	–
Cc1nn(C)c(=O)n1-c1ccc(-c2cc3cc(C(F)(F)F)cc(C(=O)Nc4cccc(C(N)=O)c4F)c3n2CC2(C#N)CC2)cc1 [Ex. 125]	260 nM	52%	99%	–	–
Cc1nn(C)c(=O)n1-c1ccc(-c2cc3cc(C(F)(F)F)cc(C(=O)Nc4cccc(C(N)=O)c4)c3n2CC2(C#N)CC2)cc1 [Ex. 126]	240 nM	62%	–	–	–
CCn1c(-c2ccc(-n3c(C)nn(C)c3=O)nn2)cc2cc(C(F)(F)F)cc(C(=O)Nc3cccc(C(N)=O)c3F)c21 [Ex. 127]	250 nM	38%	99%	–	–
CCn1c(-c2ccc(N3C(=O)C(C)CC3C)cc2)cc2ccnc(C(=O)Nc3ccc(F)c(C(N)=O)c3)c21 (centres unmarked) [Ex. 129]	590 nM	–	–	8%	75%
CCn1c(-c2ccc(N3C(=O)C(C)CC3C)cc2)cc2ccnc(C(=O)Nc3ccc(F)c(C(N)=O)c3)c21 (centres unmarked) [Ex. 130]	360 nM	–	–	74%	96%
CCn1c(-c2ccc(N3C(=O)C(C)CC3C)cc2)cc2ccnc(C(=O)Nc3cccc(C(N)=O)c3)c21 (centres unmarked) [Ex. 131]	510 nM	56%	92%	–	–
COCCn1c(-c2ccc(N3C(=O)C(C)CC3C)cc2)cc2cc(C(F)(F)F)nc(C(=O)Nc3cccc(C(N)=O)c3)c21 (centres unmarked) [Ex. 132]	520 nM	70%	96%	–	–
COCCn1c(-c2ccc(N3C(=O)C(C)CC3C)cc2)cc2cc(C(F)(F)F)nc(C(=O)Nc3ccc(F)c(C(N)=O)c3)c21 (centres unmarked) [Ex. 133]	230 nM	80%	–	–	–
CCn1c(-c2ccc(N3C(=O)C(C)CC3C)cc2)cc2cc(C(F)(F)F)nc(C(=O)Nc3cccc(C(N)=O)c3)c21 (centres unmarked) [Ex. 134]	370 nM	48%	99%	–	–
CCn1c(-c2ccc(N3C(=O)C(C)CC3C)cc2)cc2cc(C(F)(F)F)nc(C(=O)Nc3ccc(F)c(C(N)=O)c3)c21 (centres unmarked) [Ex. 135]	530 nM	85%	–	–	–
COCCn1c(-c2ccc(N3C(=O)C(C)CC3C)cc2)cc2ccnc(C(=O)Nc3cccc(C(N)=O)c3)c21 (centres unmarked) [Ex. 136]	480 nM	61%	–	–	–
COCCn1c(-c2ccc(N3C(=O)C(C)CC3C)cc2)cc2ccnc(C(=O)Nc3ccc(F)c(C(N)=O)c3)c21 (centres unmarked) [Ex. 137]	280 nM	62%	–	–	–
COCCn1c(-c2ccc(-n3c(C)nn(C)c3=O)cc2)cc2cc(C(F)(F)F)cc(COc3cccc(C(N)=O)c3)c21 [Ex. 138]	370 nM	35%	93%	–	–
COCCn1c(-c2ccc(-n3c(C)nn(C)c3=O)cc2)cc2cc(C(F)(F)F)cc(CNc3cccc(C(N)=O)c3)c21 [Ex. 139]	1940 nM	8%	69%	–	–

Structure (SMILES)	IC50 (human STAT6/pIL-4Rα)	inhibition at 0.1 µM (human STAT6; compound 0.1 μmol/L)	inhibition at 1 µM (human STAT6; compound 1 μmol/L)	Inhibition rate (%) (human STAT6; compound 0.1 μmol/L)	Inhibition rate (%) (human STAT6; compound 1 μmol/L)
CCn1c(-c2ccc(-n3c(C)nn(C)c3=O)cc2)c(I)c2cncc(C(=O)Nc3ccc(F)c(C(N)=O)c3)c21 [Ex. 140]	2720 nM	3%	45%	–	–
CCn1c(-c2ccc(-n3cnn(C)c3=O)cc2)c(Cl)c2cc(C(F)(F)F)cc(C(=O)Nc3ccc(F)c(C(N)=O)c3)c21 [Ex. 142]	300 nM	94%	100%	–	–
COCCn1c(-c2ccc(-n3c(C)nn(C)c3=O)cc2)c(Cl)c2cc(C(F)(F)F)cc(C(=O)Nc3ccc(F)c(C(N)=O)c3)c21 [Ex. 143]	390 nM	87%	99%	–	–
CCn1c(-c2ccc(-n3ncn(C)c3=O)cc2)cc2ccnc(C(=O)Nc3ccc(F)c(C(N)=O)c3)c21 [Ex. 144]	370 nM	48%	99%	–	–
CCn1c(-c2ccc(-n3c(C)nn(C)c3=O)nc2)cc2cccc(C(=O)Nc3cccc(C(N)=O)c3F)c21 [Ex. 145]	280 nM	53%	97%	–	–
CCn1c(-c2ccc(N3CCCC3=O)cc2)cc2cc(C(F)(F)F)cc(C(=O)Nc3ccc(F)c(C(N)=O)c3)c21 [Ex. 146]	750 nM	55%	87%	–	–
CCn1c(-c2ccc(N3C(=O)C(C)CC3C)cc2)cc2ccnc(C(=O)Nc3ccc(F)c(C(=O)NCC#N)c3)c21 (centres unmarked) [Ex. 147]	780 nM	48%	91%	–	–
CCn1c(-c2ccc(C(=O)N(C)C)cc2)cc2ccnc(C(=O)Nc3ccc(F)c(C(=O)NCC#N)c3)c21 [Ex. 148]	330 nM	86%	–	–	–
CCn1c(-c2ccc(NC(C)=O)cc2)cc2ccnc(C(=O)Nc3ccc(F)c(C(=O)NCC#N)c3)c21 [Ex. 149]	330 nM	25%	84%	–	–
CCn1c(-c2ccc(N3CCOCC3=O)cc2)cc2ccnc(C(=O)Nc3ccc(F)c(C(=O)NCC#N)c3)c21 [Ex. 150]	240 nM	38%	89%	–	–
CCn1c(-c2ccc(-n3c(C)nn(C)c3=O)nc2)cc2cccc(C(=O)Nc3ccc(F)c(C(N)=O)c3)c21 [Ex. 151]	610 nM	26%	77%	–	–
CCn1c(-c2ccc(-n3c(C)nn(C)c3=O)cc2C(F)(F)F)cc2cc(C(F)(F)F)cc(C(=O)Nc3ccc(F)c(C(N)=O)c3)c21 [Ex. 152]	650 nM	38%	84%	–	–
CCn1c(-c2ccc(C(=O)N(C)C)cc2)cc2cc(C(F)(F)F)cc(C(=O)Nc3ccc(F)c(C(N)=O)c3)c21 [Ex. 153]	940 nM	25%	93%	–	–
CCn1c(-c2ccc(-n3c(C(F)F)nn(C)c3=O)cc2)cc2cc(C(F)(F)F)cc(C(=O)Nc3ccc(F)c(C(N)=O)c3)c21 [Ex. 154]	280 nM	52%	99%	–	–
CCc1nn(C)c(=O)n1-c1ccc(-c2cc3cc(C(F)(F)F)cc(C(=O)Nc4ccc(F)c(C(N)=O)c4)c3n2CC)cc1 [Ex. 155]	380 nM	69%	100%	–	–
CCn1c(-c2ccc(-n3ncn(C)c3=O)cc2)cc2cccc(C(=O)Nc3ccc(F)c(C(N)=O)c3)c21 [Ex. 156]	400 nM	46%	99%	–	–
CCn1c(-c2ccc(N3C(=O)C(C)CC3C)nc2)cc2cc(C(F)(F)F)cc(C(=O)Nc3ccc(F)c(C(N)=O)c3)c21 (centres unmarked) [Ex. 157]	310 nM	62%	–	–	–
